Results reported in PubChem BioAssay (NCI).
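Tested at 5 concentrations; 48 h exposure; 96-well plates; endpoints linearly interpolated, else capped at highest concentration. Here, GI50 denotes the concentration required for 50% inhibition of growth. At the TGI there is no net growth.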

Assays:
Test in all cases: growth of human tumour cells (NCI), 48 h
NCI-H23 lung = test system: NCI-H23 lung
NCI-H460 lung = test system: NCI-H460 lung
NCI/ADR-RES ovarian = test system: NCI/ADR-RES ovarian
OVCAR-3 ovarian = test system: OVCAR-3 ovarian
OVCAR-4 ovarian = test system: OVCAR-4 ovarian
OVCAR-5 ovarian = test system: OVCAR-5 ovarian
OVCAR-8 ovarian = test system: OVCAR-8 ovarian
PC-3 prostate = test system: PC-3 prostate
RPMI-8226 leukemia = test system: RPMI-8226 leukemia
RXF 393 renal = test system: RXF 393 renal
SF-268 CNS = test system: SF-268 CNS
SF-295 CNS = test system: SF-295 CNS
SK-MEL-2 melanoma = test system: SK-MEL-2 melanoma
SK-MEL-28 melanoma = test system: SK-MEL-28 melanoma
SK-MEL-5 melanoma = test system: SK-MEL-5 melanoma
SK-OV-3 ovarian = test system: SK-OV-3 ovarian
SN12C renal = test system: SN12C renal
SNB-19 CNS = test system: SNB-19 CNS
SNB-75 CNS = test system: SNB-75 CNS
SR leukemia = test system: SR leukemia
SW-620 colon = test system: SW-620 colon
T-47D breast = test system: T-47D breast
TK-10 renal = test system: TK-10 renal
U251 CNS = test system: U251 CNS
UACC-257 melanoma = test system: UACC-257 melanoma
UACC-62 melanoma = test system: UACC-62 melanoma
UO-31 renal = test system: UO-31 renal

COc1ccc(/C=C\[N+](=O)[O-])cc1OC
GI50 (NCI-H23 lung): 2240 nM | TGI (NCI-H23 lung): 6.52 µM | GI50 (NCI-H460 lung): 4.99 µM | TGI (NCI-H460 lung): 21.2 µM | GI50 (NCI/ADR-RES ovarian): 7.08 µM | TGI (NCI/ADR-RES ovarian): 36.8 µM | GI50 (OVCAR-3 ovarian): 3 µM | TGI (OVCAR-3 ovarian): 8.73 µM | GI50 (OVCAR-4 ovarian): 14 µM | TGI (OVCAR-4 ovarian): 27.5 µM | GI50 (OVCAR-5 ovarian): 4.51 µM | TGI (OVCAR-5 ovarian): 19.3 µM | GI50 (OVCAR-8 ovarian): 2840 nM | TGI (OVCAR-8 ovarian): 11.1 µM | GI50 (PC-3 prostate): 3.01 µM | TGI (PC-3 prostate): 8.85 µM | GI50 (RPMI-8226 leukemia): 2060 nM | TGI (RPMI-8226 leukemia): 5.28 µM | GI50 (RXF 393 renal): 1810 nM | TGI (RXF 393 renal): 3.43 µM | GI50 (SF-268 CNS): 5.88 µM | TGI (SF-268 CNS): 20.5 µM | GI50 (SF-295 CNS): 12.2 µM | TGI (SF-295 CNS): 33.9 µM | GI50 (SK-MEL-2 melanoma): 2640 nM | TGI (SK-MEL-2 melanoma): 7.39 µM | GI50 (SK-MEL-28 melanoma): 3.53 µM | TGI (SK-MEL-28 melanoma): 13 µM | GI50 (SK-MEL-5 melanoma): 3.72 µM | TGI (SK-MEL-5 melanoma): 14.4 µM | GI50 (SK-OV-3 ovarian): 13.4 µM | TGI (SK-OV-3 ovarian): 26.2 µM | GI50 (SN12C renal): 3.06 µM | TGI (SN12C renal): 13.2 µM | GI50 (SNB-19 CNS): 9.75 µM | TGI (SNB-19 CNS): 25.1 µM | GI50 (SNB-75 CNS): 10.6 µM | TGI (SNB-75 CNS): 29.8 µM | GI50 (SR leukemia): 2380 nM | TGI (SR leukemia): 7.99 µM | GI50 (SW-620 colon): 1900 nM | TGI (SW-620 colon): 4.9 µM | GI50 (T-47D breast): 7.6 µM | TGI (T-47D breast): 38.2 µM | GI50 (TK-10 renal): 3.55 µM | TGI (TK-10 renal): 15.7 µM | GI50 (U251 CNS): 1500 nM | TGI (U251 CNS): 4.72 µM | GI50 (UACC-257 melanoma): 919 nM | TGI (UACC-257 melanoma): 3.38 µM | GI50 (UACC-62 melanoma): 2620 nM | TGI (UACC-62 melanoma): 12.3 µM | GI50 (UO-31 renal): 1850 nM | TGI (UO-31 renal): 3.87 µM
